For 33 substances, IC50 results are on record in patent publication US8653096B2, “Chemokine receptor antagonists and methods of use thereof” (Millennium Pharmaceuticals, Inc., priority 2001, dated 2014).

Bounds are passed on as bounds.

For the experiment, the target named is T1, RANTES/MIP-1α chemokine receptor (CCR1) in THP-1 cell membranes (Homo sapiens, UniProt P32246).
T1 construct: Membranes were prepared from THP-1 cells (ATCC #TIB202); host or cells: THP-1 cells (membrane preparation)
T1 sequence (P32246 1-355): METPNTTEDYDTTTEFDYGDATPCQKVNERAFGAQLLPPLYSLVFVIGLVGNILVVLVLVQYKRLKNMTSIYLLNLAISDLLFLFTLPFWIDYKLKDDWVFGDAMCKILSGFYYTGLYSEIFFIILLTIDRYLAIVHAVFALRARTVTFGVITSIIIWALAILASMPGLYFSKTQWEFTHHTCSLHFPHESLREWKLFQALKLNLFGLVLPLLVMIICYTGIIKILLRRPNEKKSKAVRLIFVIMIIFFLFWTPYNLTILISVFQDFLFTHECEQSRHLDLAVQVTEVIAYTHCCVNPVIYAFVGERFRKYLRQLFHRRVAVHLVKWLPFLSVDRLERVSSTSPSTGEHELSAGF
The experiment can be described thus: Receptor binding assay: 125I-RANTES or 125I-MIP-1α binding to THP-1 cell membranes. Particulars: inhibitor concentration required for 50% inhibition of specific binding; 125I-RANTES or 125I-MIP-1α as ligand, THP-1 cell membranes; read-out: IC50. As to the method: Membranes were prepared from THP-1 cells (ATCC #TIB202). Cells were harvested by centrifugation, washed twice with PBS (phosphate-buffered saline), and the cell pellets were frozen at −70 to −85° C. The frozen pellet was thawed in ice-cold lysis buffer consisting of 5 mM HEPES (N-2-hydroxyethylpiperazine-N′-2-ethane-sulfonic acid) pH 7.5, 2 mM EDTA (ethylenediaminetetraacetic acid), 5 μg/ml each aprotinin, leupeptin, and chymostatin (protease inhibitors), and 100 μg/ml PMSF (phenyl methane sulfonyl fluoride—also a protease inhibitor), at a concentration of 1 to 5×10^7 cells/ml. This procedure results in cell lysis. The suspension was mixed well to resuspend all of the frozen cell pellet. Nuclei and cell debris were removed by centrifugation of 400×g for 10 minutes at 4° C. The supernatant was transferred to a fresh tube and the membrane fragments were collected by centrifugation at 25,000×g for 30 minutes at 4° C. The supernatant was aspirated and the pellet was resuspended in freezing buffer consisting of 10 mM HEPES pH 7.5, 300 mM sucrose, 1 μg/ml each aprotinin, leupeptin, and chymostatin, and 10 μg/ml PMSF (approximately 0.1 ml per each 10^8 cells). All clumps were resolved using a minihomogenizer, and the total protein concentration was determined using a protein assay kit (Bio-Rad, Hercules, Calif., cat #500-0002). The membrane solution was then aliquoted and frozen at −70 to −85° C. until needed.
Binding Assays utilized the membranes described above. […] The binding reactions were performed in 60 to 100 μl of a binding buffer consisting of 10 mM HEPES pH 7.2, 1 mM CaCl2, 5 mM MgCl2, and 0.5% BSA (bovine serum albumin), for 60 min at room temperature. The binding reactions were terminated by harvesting the membranes by rapid filtration through glass fiber filters (GF/B or GF/C, Packard) which were presoaked in 0.3% polyethyleneimine. The filters were rinsed with approximately 600 μl of binding buffer containing 0.5 M NaCl, dried, and the amount of bound radioactivity was determined by scintillation counting in a Topcount beta-plate counter.
Specific binding is defined as the total binding minus the non-specific binding; non-specific binding is the amount of cpm still detected in the presence of excess unlabeled Rantes or MIP-1α.
In the case of “1-(2-Chlorophenylsulfonyl)-4-[3-(5,11-Dihydro-7-methoxy[1]benzoxepino[2,3-b]pyridin-5-ylidene)propyl]piperazine [Example 190]”, the IC50 was above 10 µM. To “1-(3-Chlorophenylsulfonyl)-4-[3-(5,11-Dihydro-7-methoxy[1]benzoxepino[2,3-b]pyridin-5-ylidene)propyl]piperazine [Example 191]” belongs above 10 µM; to “1-(4-Chlorophenyl)-4-[3-(5,11-dihydro-7-methoxy[1]benzoxepino[2,3-b]pyridin-5-ylidene)propyl]piperazine [Example 71]”, below 1 µM.

With “1-(4-Chlorophenylsulfonyl)-4-[3-(5,11-Dihydro-7-methoxy[1]benzoxepino[2,3-b]pyridin-5-ylidene)propyl]piperazine [Example 192]”, the IC50 was above 10 µM. To “1-Cyclohexyl-4-[3-(5,11-dihydro-7-methoxy[1]benzoxepino[2,3-b]pyridin-5-ylidene)propyl]piperazine [Example 73]” belongs below 10 µM; to “1-[3-(5,11-Dihydro-7-methoxy[1]benzoxepino[2,3-b]pyridin-5-ylidene)propyl]-4-(2-furoyl)piperazine [Example 74]”, below 1000 µM; to “1-[3-(5,11-Dihydro-7-methoxy[1]benzoxepino[2,3-b]pyridin-5-ylidene)propyl]-4-(2-hydroxyphenyl)piperidine [Example 184]”, below 10 µM. To “1-[3-(5,11-Dihydro-7-methoxy[1]benzoxepino[2,3-b]pyridin-5-ylidene)propyl]-4-(2-pyridyl)piperidin-4-ol [Example 147]” belongs below 10 µM. For “1-[3-(5,11-Dihydro-7-methoxy[1]benzoxepino[2,3-b]pyridin-5-ylidene)propyl]-4-(2-pyrimidyl)piperazine [Example 72]” the value was below 10 µM; for “1-[3-(5,11-Dihydro-7-methoxy[1]benzoxepino[2,3-b]pyridin-5-ylidene)propyl]-4-(3-pyridyl)piperidin-4-ol [Example 148]”, below 10 µM.

For “1-[3-(5,11-Dihydro-7-methoxy[1]benzoxepino[2,3-b]pyridin-5-ylidene)propyl]-4-(4-fluoro-3-methylphenyl)piperidin-4-ol [Example 143]”, the IC50 is below 1 µM. As to “1-[3-(5,11-Dihydro-7-methoxy[1]benzoxepino[2,3-b]pyridin-5-ylidene)propyl]-4-(4-fluorophenyl)piperidin-4-ol [Example 77]”, the IC50 was below 1 µM. In the case of “1-[3-(5,11-Dihydro-7-methoxy[1]benzoxepino[2,3-b]pyridin-5-ylidene)propyl]-4-(4-hydroxyphenyl)piperidin-4-ol [Example 142]”, the IC50 is below 10 µM.

Turning to “1-[3-(5,11-Dihydro-7-methoxy[1]benzoxepino[2,3-b]pyridin-5-ylidene)propyl]-4-(4-hydroxyphenyl)piperidine [Example 183]”, the IC50 was below 1 µM. For “1-[3-(5,11-Dihydro-7-methoxy[1]benzoxepino[2,3-b]pyridin-5-ylidene)propyl]-4-(4-methoxyphenyl)piperidin-4-ol [Example 140]” the value was above 10 µM; for “1-[3-(5,11-Dihydro-7-methoxy[1]benzoxepino[2,3-b]pyridin-5-ylidene)propyl]-4-(4-pyridyl)piperidin-4-ol [Example 149]”, below 1000 µM; for “1-[3-(5,11-Dihydro-7-methoxy[1]benzoxepino[2,3-b]pyridin-5-ylidene)propyl]-4-(4-trifluoromethylphenyl)piperidin-4-ol [Example 150]”, below 10 µM. For “1-[3-(5,11-Dihydro-7-methoxy[1]benzoxepino[2,3-b]pyridin-5-ylidene)propyl]-4-phenylpiperidine [Example 64]” the value was below 1 µM; for “1-[3-(5,11-Dihydro-7-methoxy[1]benzoxepino[2,3-b]pyridin-5-ylidene)propyl]-4-piperidinopiperidine [Example 66]”, below 1000 µM; for “1-[3-(5,11-Dihydro-7-methoxy[1]benzoxepino[2,3-b]pyridin-5-ylidene)propyl]piperidin-4-ol [Example 61]”, below 10 µM. For “1-[3-(7-(1-Carboxy-1-methylethyl)oxy-5,11-dihydro [1]benzoxepino[2,3-b]pyridin-5-ylidene)propyl]-4-(4-chlorophenyl)piperidin-4-ol [Example 139]” the value was below 1 µM. As to “1-[3-(7-(1-Carboxy-1-methylethyl)oxy-5,11-dihydro[1]benzoxepino[2,3-b]pyridin-5-ylidene)propyl]-4-(4-chlorophenyl)piperidine [Example 159]”, the concentration for half-maximal inhibition (IC50) was below 1 µM. Regarding “1-[3-(7-(1-Carboxyethyl)oxy-5,11-dihydro[1]benzoxepino[2,3-b]pyridin-5-ylidene)propyl]-4-(4-chlorophenyl)piperidin-4-ol [Example 178]”, the IC50 was below 1 µM. For “1-[3-(7-(2-Carbamoyl)ethyl-5,11-dihydro[1]benzoxepino[2,3-b]pyridin-5-ylidene)propyl]-4-(4-chlorophenyl)-piperidin-4-ol [Example 218]” the value was below 1 µM.

With “1-[3-(7-(2-Carboxy)ethenyl-5,11-dihydro[1]benzoxepino[2,3-b]pyridin-5-ylidene)propyl]-4-(4-chlorophenyl)piperidin-4-ol [Example 172]”, the IC50 was below 1 µM.

Turning to “1-[3-(7-(2-Carboxy)ethyl-5,11-dihydro[1]benzoxepino[2,3-b]pyridin-5-ylidene)propyl]-4-(4-chlorophenyl)-piperidin-4-ol [Example 123]”, the IC50 was below 1 µM. As for “1-[3-(7-Bromo-5,11-dihydro[1]benzoxepino[2,3-b]pyridin-5-ylidene)propyl]-4-(4-chlorophenyl)piperidin-4-ol [Example 162]”, the IC50 was below 1 µM.

As for “1-[3-(7-Carbamoyl-5,11-dihydro[1]benzoxepino[2,3-b]pyridin-5-ylidene)propyl]-4-(4-chlorophenyl)piperidin-4-ol [Example 269]”, the IC50 was below 1 µM. For “1-[3-(7-Carbamoylmethyl-5,11-dihydro[1]benzoxepino[2,3-b]pyridin-5-ylidene)propyl]-4-(4-chlorophenyl)-piperidin-4-ol [Example 281]”, the IC50 is below 1 µM. To “1-[3-(7-Carbamoylmethyloxy-5,11-dihydro[1]benzoxepino[2,3-b]pyridin-5-ylidene)propyl]-4-(4-chlorophenyl)piperidin-4-ol [Example 181]” belongs below 1 µM. For “1-[3-(7-Carboxy-5,11-dihydro[1]benzoxepino[2,3-b]pyridin-5-ylidene)propyl]-4-(4-chlorophenyl)piperidin-4-ol [Example 118]” the value was below 1 µM; for “1-[3-(7-Carboxymethyloxy-5,11-dihydro[1]benzoxepino[2,3-b]pyridin-5-ylidene)propyl]-4-(4-chlorophenyl)piperidin-4-ol [Example 133]”, below 1 µM.

In the case of “1-[3-(7-Chloro-5,11-dihydro[1]benzoxepino[2,3-b]pyridin-5-ylidene)propyl]-4-(4-chlorophenyl)piperidin-4-ol [Example 117]”, the IC50 is below 1 µM.

In general, IC50 refers to the concentration needed to halve the response being measured.
